Values joined by “and” are separate entries in the source; they are usually repeats but may differ in a detail not shown here. Equal entries are not always repeated. Inconclusive results and toxic doses are left out. Rule as the data show it: active = T/C of 150% or more; inactive = T/C below 125%.
System: L1210 leukemia ip in BDF1 mice, survival T/C
Experiment: NCI In Vivo Anticancer Drug Screen. Data for tumor model L1210 Leukemia (intraperitoneal) in B6D2F1 (BDF1) mice
Details: endpoint: mean survival time, higher = longer survival
Method in brief: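 In this screen, tumor-bearing mice given compound are compared to those given vehicle, and their survival values are reported as a treated-to-control quotient.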

[1] = dose: 100.0 mg/kg/injection, schedule: Q04DX003 (ip), vehicle: saline with Tween-80
[2] = dose: 200.0 mg/kg/injection, schedule: Q04DX003 (ip), vehicle: saline with Tween-80
[3] = dose: 400.0 mg/kg/injection, schedule: Q04DX003 (ip), vehicle: saline with Tween-80
[4] = dose: 100.0 mg/kg/injection, schedule: Q01DX009 (ip), vehicle: saline with Tween-80
[5] = dose: 100.0 mg/kg/injection, schedule: Q04DX003 (ip), vehicle: saline
[6] = dose: 200.0 mg/kg/injection, schedule: Q01DX009 (ip), vehicle: saline with Tween-80
[7] = dose: 200.0 mg/kg/injection, schedule: Q04DX003 (ip), vehicle: saline
[8] = dose: 400.0 mg/kg/injection, schedule: Q04DX003 (ip), vehicle: saline
[9] = dose: 100.0 mg/kg/injection, schedule: Q01DX001 (ip), vehicle: saline
[10] = dose: 200.0 mg/kg/injection, schedule: Q01DX001 (ip), vehicle: saline
[11] = dose: 400.0 mg/kg/injection, schedule: Q01DX001 (ip), vehicle: saline
[12] = dose: 100.0 mg/kg/injection, schedule: Q01DX001 (ip), vehicle: saline with Tween-80
[13] = dose: 200.0 mg/kg/injection, schedule: Q01DX001 (ip), vehicle: saline with Tween-80
[14] = dose: 100.0 mg/kg/injection, schedule: Q01DX001 (ip), vehicle: carboxymethylcellulose (CMC)
[15] = dose: 200.0 mg/kg/injection, schedule: Q01DX001 (ip), vehicle: carboxymethylcellulose (CMC)
[16] = dose: 400.0 mg/kg/injection, schedule: Q01DX001 (ip), vehicle: carboxymethylcellulose (CMC)
[17] = dose: 12.5 mg/kg/injection, schedule: Q01DX009 (ip), vehicle: saline with Tween-80
[18] = dose: 25.0 mg/kg/injection, schedule: Q01DX009 (ip), vehicle: saline with Tween-80
[19] = dose: 25.0 mg/kg/injection, schedule: Q01DX009 (ip), vehicle: Klucel (hydroxypropylcellulose) (HPC)
[20] = dose: 50.0 mg/kg/injection, schedule: Q01DX009 (ip), vehicle: Klucel (hydroxypropylcellulose) (HPC)
[21] = dose: 50.0 mg/kg/injection, schedule: Q01DX009 (ip), vehicle: saline with Tween-80
[22] = dose: 100.0 mg/kg/injection, schedule: Q04DX003 (ip), vehicle: Klucel (hydroxypropylcellulose) (HPC)

Measured: T/C

CCCCCCCCCC(=O)N1CCC(CCCc2ccccc2)CC1
inactive: dose: 75.0 mg/kg/injection, schedule: Q01DX001 (ip), vehicle: carboxymethylcellulose (CMC) 95 % of control | dose: 150.0 mg/kg/injection, schedule: Q01DX001 (ip), vehicle: carboxymethylcellulose (CMC) 92 % of control | dose: 300.0 mg/kg/injection, schedule: Q01DX001 (ip), vehicle: carboxymethylcellulose (CMC) 95 % of control

O=C1NC(=O)C2CC=CCC12 (stereo unspecified)
inactive: [1] 101 % of control | [2] 106 % of control | [3] 106 % of control

CCCCCCCCCC(=O)CCCC
inactive: [4] 122 % of control | [5] 94 % of control | [6] 96 % of control | [7] 98 % of control | dose: 400.0 mg/kg/injection, schedule: Q01DX009 (ip), vehicle: saline with Tween-80 104 % of control | [8] 94 % of control

C[S+](C)CCCN
inactive: [9] 105 % of control | dose: 100.0 mg/kg/injection, schedule: Q01DX009 (ip), vehicle: saline 94 % of control | [5] 103 % of control | [10] 110 % of control | dose: 200.0 mg/kg/injection, schedule: Q01DX009 (ip), vehicle: saline 109 % of control | [7] 106 % of control | [11] 105 % of control | dose: 400.0 mg/kg/injection, schedule: Q01DX009 (ip), vehicle: saline 106 % of control | [8] 98 % of control

Sc1cc(Cl)c(Cl)cc1Cl
inactive: [12] 97 % of control | [13] 90 % of control

CSc1nc(N)c(N=Nc2ccc(S(=O)(=O)Nc3ccccn3)cc2)c(=O)[nH]1
inactive: [14] 92 % of control | [15] 101 % of control | [16] 95 % of control

O=C(OCCN1CCCCCCCC1)C(c1ccccc1)c1ccccc1
inactive: dose: 100.0 mg/kg/injection, schedule: Q01DX001 (ip), vehicle: other 101 % of control | dose: 200.0 mg/kg/injection, schedule: Q01DX001 (ip), vehicle: other 90 % of control | dose: 400.0 mg/kg/injection, schedule: Q01DX001 (ip), vehicle: other 110 % of control

OC1C2C3CCC(C3)C2C(O)C2C3CCC(C3)C12 (stereo unspecified)
inactive: [17] 101 % of control | [18] 101 % of control

CCNC(C)(C)C(SS(=O)(=O)O)c1ccc(Cl)s1 (stereo unspecified)
inactive: [4] 96 % of control | [1] 102 % of control | [6] 90 % of control | [2] 96 % of control | [3] 92 % of control

COc1ccc(Nc2cccc(Cl)c2)c(C(=O)O)c1
inactive: dose: 40.0 mg/kg/injection, schedule: Q01DX009 (ip), vehicle: saline 100 % of control | dose: 75.0 mg/kg/injection, schedule: Q01DX001 (ip), vehicle: saline 98 % of control | dose: 75.0 mg/kg/injection, schedule: Q01DX009 (ip), vehicle: saline 87 % of control | dose: 150.0 mg/kg/injection, schedule: Q01DX001 (ip), vehicle: saline 90 % of control | dose: 150.0 mg/kg/injection, schedule: Q01DX009 (ip), vehicle: saline 87 % of control

Nc1ccc(CSc2ccc(Cl)cc2)cc1
inactive: dose: 12.5 mg/kg/injection, schedule: Q01DX009 (ip), vehicle: Klucel (hydroxypropylcellulose) (HPC) 94 % of control | [19] 97 % of control | [20] 87 % of control | dose: 75.0 mg/kg/injection, schedule: Q01DX009 (ip), vehicle: Klucel (hydroxypropylcellulose) (HPC) 88 % of control | dose: 170.0 mg/kg/injection, schedule: Q01DX009 (ip), vehicle: Klucel (hydroxypropylcellulose) (HPC) 94 % of control

O=c1oc(-c2ccccc2)c(-c2ccccc2)c(-c2ccccc2)c1-c1ccccc1
inactive: [12] 103 % of control | [13] 91 % of control | dose: 400.0 mg/kg/injection, schedule: Q01DX001 (ip), vehicle: saline with Tween-80 91 % of control

CCCCCCCCc1cc[n+](C2=C([O-])c3ccccc3C(=O)C2=O)cc1
inactive: dose: 1.5 mg/kg/injection, schedule: Q01DX009 (ip), vehicle: saline 106 % of control | dose: 3.0 mg/kg/injection, schedule: Q01DX009 (ip), vehicle: saline 95 % of control | dose: 6.0 mg/kg/injection, schedule: Q01DX009 (ip), vehicle: saline 106 % of control

Cc1cc([N+](=O)[O-])ccc1N=O
inactive: [17] 101 % of control | [18] 102 % of control | [21] 98 % of control | [1] 98 % of control | [2] 100 % of control | [3] 100 % of control

CCC(=S)Nc1ccc(Cl)cc1
inactive: [18] 103 % of control | [21] 105 % of control | [4] 112 % of control | [1] 91 % of control | [2] 110 % of control

CCCCCCCC/C=C\CCCCCCCC(=O)O.[Fe]
inactive: [9] 93 % of control | [10] 95 % of control | [11] 90 % of control

S=C(Nc1ccc(Cl)c(Cl)c1)SCc1ccc(Cl)cc1
inactive: dose: 25.0 mg/kg/injection, schedule: Q04DX003 (ip), vehicle: saline 104 % of control | dose: 50.0 mg/kg/injection, schedule: Q04DX003 (ip), vehicle: saline 101 % of control | [5] 104 % of control

Cc1ccccc1OP(=O)(Oc1ccccc1C)Oc1ccccc1C
inactive: dose: 50.0 mg/kg/injection, schedule: Q01DX001 (ip), vehicle: carboxymethylcellulose (CMC) 104 % of control | [14] 101 % of control | [15] 95 % of control | [16] 93 % of control

O=[N+]([O-])c1cccc(C=Nc2ccccc2)c1
inactive: [22] 112 % of control | dose: 200.0 mg/kg/injection, schedule: Q04DX003 (ip), vehicle: Klucel (hydroxypropylcellulose) (HPC) 96 % of control | dose: 400.0 mg/kg/injection, schedule: Q04DX003 (ip), vehicle: Klucel (hydroxypropylcellulose) (HPC) 96 % of control

OCC1(CO)COC(c2ccccc2)OC1
inactive: [19] 101 % of control | [20] 101 % of control | dose: 50.0 mg/kg/injection, schedule: Q04DX003 (ip), vehicle: Klucel (hydroxypropylcellulose) (HPC) 97 % of control | dose: 100.0 mg/kg/injection, schedule: Q01DX009 (ip), vehicle: Klucel (hydroxypropylcellulose) (HPC) 108 % of control | [22] 90 % of control

Cn1cnc([N+](=O)[O-])c1[Se]c1ncnc2nc[nH]c12
inactive: dose: 12.5 mg/kg/injection, schedule: Q01DX005 (ip), vehicle: other 89 % of control | dose: 50.0 mg/kg/injection, schedule: Q01DX005 (ip), vehicle: other 87 % of control

Cc1cc(C)c(NC(=O)/C=C/C(=O)O)c(C)c1
inactive: dose: 100.0 mg/kg/injection, schedule: Q04DX002 (ip), vehicle: saline with Tween-80 91 % of control and 92 % of control | dose: 200.0 mg/kg/injection, schedule: Q04DX002 (ip), vehicle: saline with Tween-80 94 % of control and 99 % of control | dose: 800.0 mg/kg/injection, schedule: Q04DX002 (ip), vehicle: saline with Tween-80 103 % of control
